Results published in paper PMC7142304, “Oxadiazole-Containing Macrocyclic Peptides Potentiate Azole Activity against Pathogenic Candida Species” (mSphere, 2020).
Converted amounts (≈) assume the structure as drawn.

Assays:
[1] = tested on: ABC transporters Cdr1 and Cdr2; assay: Rhodamine-6G intracellular accumulation (efflux inhibition); type: cell-based; conditions: 30°C
Description: (A) The effect of JRF1199-1 and JRF1199-2 on filamentation of C. albicans (SN95, CaLC239) was monitored after incubation in YPD medium at 30°C or 39°C for 4 h with shaking. Images were taken by differential interference contrast microscopy. Representative fields from micrographs obtained at the same magnification for all images are presented. (B) C. albicans (Caf2-1, CaLC2742) was grown in YPD medium at 30°C for 3 h with or without 125 μM macrocycle or 10 μg/ml of beauvericin. A concentration of 1 μg/ml of rhodamine-6G was added to the cultures for another 30 min at 30°C. Cells were washed twice with phosphate-buffered saline (PBS), followed by fluorescence microscopy to monitor rhodamine-6G accumulation in cells. (C) The fluorescence of untreated cells or of cells treated with beauvericin or JRF1198-2 was quantitated by flow cytometry. Assays were performed using 250 μl of culture per well, and fluorescence was measured using the FL2 (phycoerythrin) channel in a CytoFLEX flow cytometer (Beckman Coulter Inc.) with at least 20,000 events acquired per sample. Events were gated to capture at least 90% of the entire population analyzed, discarding clumps/cellular debris. […] Growth was measured by absorbance at 600 nm after 24 h (C. parapsilosis [CpLC573], C. auris [Ci 6684, CauLC5083], and C. glabrata [BG2, CgLC1002]) or after 48 h (C. tropicalis [CtLC573]) at 30°C. […]

[2] = tested on: C. glabrata, C. auris, C. tropicalis, and C. parapsilosis; assay: Fluconazole MIC against azole-resistant non-albicans Candida panel; type: cell-based, Candida species; conditions: in the absence of macrocyclic peptides; range over the four strains; YPD, 30°C

MIC [2] [µg/mL]	Compound	Mean Fluorescence (rhodamine-6G accumulation) ([1]; flow cytometry, FL2 channel, 3 h with 125 μM macrocycle or 10 μg/ml beauvericin, then 1 μg/ml rhodamine-6G for 30 min, at least 20,000 events)	Effect on rhodamine-6G accumulation ([1]; microscopy and flow cytometry, 125 μM macrocycle or 10 μg/ml beauvericin, YPD)
–	beauvericin	275895.3	enhanced rhodamine-6G accumulation
32 to 256 (≈ 104 to 836 µM)	OC(Cn1cncn1)(Cn1cncn1)c1ccc(F)cc1F [fluconazole]	–	–
